According to patent US12128048B2, “Combination therapies using PRMT5 inhibitors for the treatment of cancer” (Mirati Therapeutics, Inc., priority 2021, dated 2024):

Columns and labels:
[1] = test system: LU99 PRMT5-041 lung tumor xenograft model; assay: LU99 PRMT5-041 tumor xenograft, Example 3 (MRTX1719 with or without MRTX849); assay type: in vivo, mice; settings: MRTX1719 50 mg/kg PO QD, MRTX849 30 mg/kg PO QD
Procedure: (§1) Immunodeficient female nu/nu mice were implanted with 5×10^6 LU99 lung cancer cells in 50% Matrigel. Tumors were measured using calipers until they reached approximately 150-200 mm^3. Animals were randomized to receive A) vehicle (0.5% methylcellulose (4000 cps)/0.2% Tween80 in water), B) a PRMT5 inhibitor, C) KRAS^G12C inhibitor, or D) the PRMT5 inhibitor and KRAS^G12C inhibitor, all administered orally (PO) for 21 days. Tumor volume was measured twice a week (n=5/treatment group). Average tumor volume and standard error of the mean was calculated and plotted at each study day in GraphPad.

[2] = test system: SW1573 PRMT5-044 lung tumor xenograft model; assay: SW1573 PRMT5-044 tumor xenograft, Example 4 (MRTX1719 with or without MRTX849); assay type: in vivo, mice; settings: MRTX1719 50 mg/kg PO QD, MRTX849 100 mg/kg PO QD
Procedure: as §1

[3] = test system: KRAS^G12C and CDKN2A/MTAP^DEL lung tumor xenograft LU99 model; assay: LU99 lung tumor xenograft, Example 1 (MRTX9768 with or without MRTX849); settings: MRTX9768 100 mg/kg PO BID, MRTX849 30 mg/kg PO QD
Procedure: as §1

[4] = test system: KRAS^G12C and CDKN2A/MTAP^DEL lung tumor xenograft LU99 model; assay: LU99 lung tumor xenograft, Example 2 (MRTX7477 with or without MRTX849); settings: MRTX7477 200 mg/kg PO BID, MRTX849 30 mg/kg PO QD
Procedure: as §1

With `C=C(F)C(=O)N1CCN(c2nc(OC[C@@H]3CCCN3C)nc3c2CCN(c2cccc4cccc(Cl)c24)C3)C[C@@H]1CC#N` [MRTX849] the “Tumor Volume Mean” value ([1]; Day 0) was 154 mm^3, the “Tumor Volume Mean” value ([1]; Day 5) was 142 mm^3 and the “Tumor Volume Mean” value ([1]; Day 8) was 117 mm^3. The “Tumor Volume Mean” value ([1]; Day 12) was 87 mm^3, the “Tumor Volume Mean” value ([1]; Day 15) was 81 mm^3 and the “Tumor Volume Mean” value ([1]; Day 20) was 84 mm^3. The “Tumor Volume Mean” value ([1]; Day 22) was 103 mm^3, the “Tumor Volume Mean” value ([2]; Day 0) was 139 mm^3 and the “Tumor Volume Mean” value ([2]; Day 3) was 150 mm^3. The “Tumor Volume Mean” value ([2]; Day 8) was 188 mm^3, the “Tumor Volume Mean” value ([2]; Day 10) was 236 mm^3 and the “Tumor Volume Mean” value ([2]; Day 14) was 285 mm^3. The “Tumor Volume Mean” value ([2]; Day 17) was 320 mm^3 and the “Tumor Volume Mean” value ([2]; Day 26) was 361 mm^3.
`Cn1ncc(-c2ccc3c(=O)[nH]nc(CN)c3c2)c1-c1c(F)cc2ccccc2c1C#N` [MRTX9768] was tested, and the “Tumor Volume Mean” value ([3]; Day 0) was 183.59 mm^3, the “Tumor Volume Mean” value ([3]; Day 3) was 265.26 mm^3 and the “Tumor Volume Mean” value ([3]; Day 7) was 331.80 mm^3. For the same molecule, the “Tumor Volume Mean” value ([3]; Day 10) was 349.53 mm^3, the “Tumor Volume Mean” value ([3]; Day 14) was 406.58 mm^3 and the “Tumor Volume Mean” value ([3]; Day 17) was 431.91 mm^3. The “Tumor Volume Mean” value ([3]; Day 21) was 458.95 mm^3.
With `Cn1ncc(-c2ccc3c(=O)[nH]nc(CN)c3c2)c1-c1ccc2ccccc2c1C#N` [MRTX7477] the “Tumor Volume” value ([4]; Day 1) was 214.5 mm^3, the “Tumor Volume” value ([4]; Day 5) was 210.7 mm^3 and the “Tumor Volume” value ([4]; Day 8) was 177.1 mm^3. For the same molecule, the “Tumor Volume” value ([4]; Day 12) was 185.3 mm^3, the “Tumor Volume” value ([4]; Day 15) was 189.1 mm^3 and the “Tumor Volume” value ([4]; Day 19) was 229.5 mm^3. The “Tumor Volume” value ([4]; Day 21) was 267.5 mm^3 and the “Tumor Volume” value ([4]; Day −2) was 129.4 mm^3.
